Values of other authors as cited in US8808745B2 (Egalet Ltd., priority 2001, dated 2014).

Details: single dose of 10 mg oral morphine, plain tablet composition

## CN1CC[C@]23c4c5ccc(O)c4O[C@H]2[C@@H](O)C=C[C@H]3[C@H]1C5 [morphine]
  average duration of action: 4 to 5 h
